In patent US7977341B2, “Substituted isoxazoles as fungicides” (Syngenta Limited, priority 2004, dated 2011):
Read-outs that look alike come from different tables or passages of the source.

How the values were obtained:
[1] = test system: Botrytis cinerea; test: Fungicidal activity, microtiter plate format; assay type: cell-based
[2] = test system: Phytophthora infestans; test: microbe, parasite or virus in culture; assay type: cell-based; settings: read-out: IC50 P. infestans
[3] = test system: Stagonospora nodorum; test: Fungicidal activity, microtiter plate format; assay type: cell-based; settings: for IC50: Parastagonospora nodorum, read-out: IC50 S. nodorum
[4] = test system: Septoria tritici; test: Fungicidal activity, microtiter plate format; assay type: cell-based
[5] = test system: Puccinia recondita; test: Cereal field trial on soft red winter wheat (leaf rust); assay type: in vivo; settings: wheat cultivar Sisson
Method: A field trial of Compound 4 was conducted on soft red winter wheat cultivar Sisson. Very dry weather gave rise to a low natural incidence of leaf rust (Puccinia recondita: PUCCRT) late in the trial. Compound 4 was applied as a 9.5% active ingredient (weight/weight) emulsifiable concentrate of the following formula (each weight/weight): 9.5% Compound 4, 9.5% m-Pyrol, 65% Surfadone LP-100, 6% Surfadone LP-300, 5% Toximul 3463F, and 5% Toximul 3464F. Rates of Compound 4 application were as follows (grams active ingredient per hectare: g a.i./ha): 140, 280 and 421.

[6] = test system: Sclerotinia homoeocarpa; test: Turf trial on creeping bentgrass (dollar spot)
Method: A fungicide trial was conducted on a 15-yr-old sward of creeping bentgrass v. Penncross during the spring. […] Treatments were arranged as plots (0.5×1.0 m) in a randomized complete block design with four replications. […] The turfgrass was inoculated with autoclaved tall fescue seed infested with Sclerotinia homoeocarpa (common name: dollar spot) six hours after application of the initial preventive treatments. The plots received approximately 0.24 inches of irrigation water daily at 1700 hour to ensure nightly foliar wetness for infection. The Horsfall-Barratt rating scale was used to visually estimate disease severity at approximately 7-day intervals from the initial application date. Turfgrass quality was assessed using a 0-9 scale where 0=a necrotic, thin foliar canopy and 9=a dark green, dense foliar canopy. Disease and quality values were subjected to analysis of variance and means were statistically separated using the Scott-Knott cluster analysis procedure.

[7] = fungal growth on agar, 20° C., 3-5 days, C.V. class in parentheses

Row | SMILES | IC50 [2] [µM] | IC50 S. tritici [4] | IC50 B. cinerea [1, 7] | IC50 S. nodorum [3, 7] | IC50 S. tritici [4, 7] | other results
1 | C[Si](C)(C)c1onc(-c2c(Cl)cccc2Cl)c1C(O)c1cccnc1 (stereo not shown) [Compound 1, 3-(2,6-Dichlorophenyl)-4-[(3-pyridyl)hydroxymethyl]-5-trimethylsilylisoxazole] | > 100 | C (b) |  |  |  | IC50 ([1]; Botrytis cinerea, read-out: IC50 B. cinerea): > 100 µM; IC50 [3]: > 100 µM
2 | C[Si](C)(C)c1onc(-c2ccc(Cl)cc2Cl)c1C(O)c1cccnc1 (stereo not shown) [Compound 3, 3-(2,4-Dichlorophenyl)-4-[(3-pyridyl)hydroxymethyl]-5-trimethylsilylisoxazole] | > 100 | A (b) |  |  |  | IC50 B. cinerea [1]: B (b); IC50 S. nodorum [3]: B (d)
3 | OC(c1cccnc1)c1c(-c2ccc(Cl)cc2Cl)noc1-c1cccc(Cl)c1 (stereo not shown) [Compound 4, 5-(3-Chlorophenyl)-3-(2,4-dichlorophenyl)-4-[(3-pyridyl)hydroxymethyl]-isoxazole] | > 100 |  | B (d) | A (b) | A (c) | Control of leaf rust incidence ([5]; 9.5% emulsifiable concentrate, 140, 280 and 421 g a.i./ha, low natural incidence): good control of the rust incidence; Yield enhancement ([5]; highest rate of Compound 4): Yield enhancement was observed; Dollar spot disease control (Horsfall-Barratt disease severity) ([6]; creeping bentgrass v. Penncross, Compound 4 as 25% wetable powder at 2.2, 4.4, 8.8 g a.i./1000 sq ft, mean disease <3.0% acceptable): effective control on dollar spot during most of the trial period; Turfgrass quality (0-9 scale) ([6]; creeping bentgrass, ratings >6.0 acceptable): Highest quality ratings
4 | CC(C)(C)c1onc(-c2ccc(Cl)cc2Cl)c1C(O)c1cccnc1 (stereo not shown) [Compound 7, 3-(2,4-Dichlorophenyl)-5-(1,1-dimethylethyl)-4-[(3-pyridyl)hydroxymethyl]-isoxazole] | > 100 |  | B (c) |  |  | IC50 [3, 7]: > 100 µM; IC50 ([4]; Zymoseptoria tritici, fungal growth on agar, 20° C., 3-5 days, C.V. class in parentheses, read-out: IC50 S. tritici): > 100 µM
5 | OC(c1cccnc1)c1c(-c2ccc(Cl)cc2Cl)noc1-c1cccs1 (stereo not shown) [Compound 12, 3-(2,4-Dichlorophenyl)-4-[(3-pyridyl)hydroxymethyl]-5-(2-thienyl)isoxazole] | > 100 |  | B (c) | B (d) | A (b) | 
6 | OC(c1cccnc1)c1c(-c2ccc(Cl)cc2Cl)noc1-c1ccsc1 (stereo not shown) [Compound 13, 3-(2,4-Dichlorophenyl)-4-[(3-pyridyl)hydroxymethyl]-5-(3-thienyl)isoxazole] | > 100 |  | B (b) | B (d) | A (b) | 
